Source: US9045461B2, “Phenyl-heteroaryl derivatives and methods of use thereof” (TransTech Pharma, LLC, priority 2010, dated 2015)
pIC50: −log10 of the molar value. Counter-ions that a name gives are not always drawn.

Assays:
[1] = target: T1, sRAGE binding to S100b (Homo sapiens, UniProt Q15109); test: RAGE binding assay (ELISA), S100b as the RAGE ligand; conditions: compounds tested in hydrochloride salt form, concentration at which 50% signal has been inhibited
T1 construct: extracellular domain can be isolated by proteolysis of RAGE to generate soluble RAGE (sRAGE) comprised of the V and C domains
Protocol: (§1) The following assay method may be used to identify compounds of Formula (I) or pharmaceutically acceptable salts thereof which are useful as inhibitors of binding of physiological RAGE ligands, such as S100b and β-amyloid, to RAGE.
(§2) S100b, β-amyloid, or CML (500 ng/100 μL/well) in 100 mM sodium bicarbonate/sodium carbonate buffer (pH 9.8) is loaded onto the wells of a NUNC Maxisorp flat bottom 96-well microtitre plate. The plate is incubated at 4° C. overnight. The wells are aspirated and treated with 50 mM imidazole buffer saline (pH 7.2) (with 5 mM CaCl2/MgCl2) containing 1% bovine serum albumin (BSA) (300 μL/well) for 1 h at RT. The wells are aspirated.
(§3) Test compounds are dissolved in nanopure water (concentration: 10-100 μM). DMSO may be used as co-solvent. 25 μL of test compound solution in 4% DMSO is added, along with 75 μL sRAGE (6 nM FAC) to each well and samples are incubated for 1 h at 37° C. The wells are washed several times with 155 mM NaCl pH 7.2 buffer saline and are soaked for several seconds between each wash.
(§4) Non-radioactive detection is performed by adding:
(§5) 10 μL Biotinylated goat F(ab′)2 Anti-mouse IgG. (8.0×10-4 mg/mL, FAC), 5 μL Alk-phos-Streptavidin (3×10-3 mg/mL FAC), 0.42 μL per 5 mL Monoclonal antibody for sRAGE (FAC 6.0×10-3 mg/mL) to 5 mL 50 mM imidazole buffer saline (pH 7.2) containing 0.2% bovine serum albumin and 5 mM CaCl2. The mixture is incubated for 30 minutes at RT.
(§6) 100 μL of complex is added to each well and incubation is allowed to proceed at rt for 1 h. Wells are washed several times with wash buffer and soaked several seconds between each wash. 100 μL 1 mg/mL (pNPP) in 1 M diethanolamine (pH adjusted to 9.8 with HCl) is added. Color is allowed to develop in the dark for 30 min to 1 h at rt. The reaction is quenched with 10 μL of stop solution (0.5-1.0 N NaOH in 50% ethanol) and the absorbance is measured spectrophotometrically with a microplate reader at 405 nm.
(§7) The IC50 (μM) value in the ELISA assay represents the concentration of compound at which 50% signal has been inhibited.

[2] = target: T2, sRAGE binding to β-amyloid (Homo sapiens, UniProt Q15109); test: RAGE binding assay (ELISA), β-amyloid as the RAGE ligand; conditions: compounds tested in hydrochloride salt form, concentration at which 50% signal has been inhibited
T2 construct: extracellular domain can be isolated by proteolysis of RAGE to generate soluble RAGE (sRAGE) comprised of the V and C domains
Protocol: as §1, §2, §3, §4, §5, §6, §7

T1 sequence (Q15109 23-342 limits assumed): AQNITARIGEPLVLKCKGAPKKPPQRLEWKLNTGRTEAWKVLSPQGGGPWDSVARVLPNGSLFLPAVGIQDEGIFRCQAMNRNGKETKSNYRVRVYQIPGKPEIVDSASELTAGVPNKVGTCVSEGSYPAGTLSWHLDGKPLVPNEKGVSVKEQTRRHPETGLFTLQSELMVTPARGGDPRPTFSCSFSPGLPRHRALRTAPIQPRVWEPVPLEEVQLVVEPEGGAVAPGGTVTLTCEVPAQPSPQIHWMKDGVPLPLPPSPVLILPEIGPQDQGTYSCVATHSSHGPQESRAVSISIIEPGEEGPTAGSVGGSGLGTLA
T2 sequence (Q15109 23-342 limits assumed): as above

pIC50 [1] | pIC50 [2] | Compound
5.82 | 5.79 | CCCCc1nnc(OCC2CCN(C)C2)cc1-c1ccc(OCc2ccccc2)cc1 (stereo not shown) [Example 10, 4-(4-Benzyloxy-phenyl)-3-butyl-6-(1-methyl-pyrrolidin-3-ylmethoxy)-pyridazine dihydrochloride]
5.24 | 5.49 | CCCCc1nnc(OCC2(O)CCN(C)CC2)cc1-c1ccc(OCc2ccccc2)cc1 [Example 11, 4-[5-(4-Benzyloxy-phenyl)-6-butyl-pyridazin-3-yloxymethyl]-1-methyl-piperidin-4-ol dihydrochloride]
5.92 | 5.81 | CCCc1nnc(OC2CCN(C)CC2)cc1-c1ccc(OCc2ccccc2)cc1 [Example 12, 4-(4-Benzyloxy-phenyl)-6-(1-methyl-piperidin-4-yloxy)-3-propyl-pyridazine dihydrochloride]
5.59 | 5.58 | CN1CCC(Oc2cc(-c3ccc(OCc4ccccc4)cc3)c(C(F)(F)F)nn2)CC1 [Example 13, 4-(4-Benzyloxy-phenyl)-6-(1-methyl-piperidin-4-yloxy)-3-trifluoromethyl-pyridazine dihydrochloride]
6.19 | 6.18 | CCCCc1nnc(OC2CCN(CCC(=O)OCC)CC2)cc1-c1ccc(OC2CCCCC2)cc1 [Example 15, 3-{4-[6-Butyl-5-(4-cyclohexyloxy-phenyl)-pyridazin-3-yloxy]-piperidin-1-yl}-propionic acid ethyl ester dihydrochloride]
5.66 | 5.68 | CCCCc1nnc(OC2CCN(CCC(=O)N(C)C)CC2)cc1-c1ccc(OC2CCCCC2)cc1 [Example 16, 3-{4-[6-Butyl-5-(4-cyclohexyloxy-phenyl)-pyridazin-3-yloxy]-piperidin-1-yl}-N,N-dimethyl-propionamide dihydrochloride]
6.09 | 6.09 | CCCCc1nnc(OC2CCN(CCO)CC2)cc1-c1ccc(OC2CCCCC2)cc1 [Example 17, 2-{4-[6-Butyl-5-(4-cyclohexyloxy-phenyl)-pyridazin-3-yloxy]-piperidin-1-yl}-ethanol dihydrochloride]
6.08 | 6.22 | CCCCc1nnc(OC2CCN(CCC3OCCCO3)CC2)cc1-c1ccc(OC2CCCCC2)cc1 [Example 18, 3-Butyl-4-(4-cyclohexyloxy-phenyl)-6-[1-(2-[1,3]dioxan-2-yl-ethyl)-piperidin-4-yloxy]-pyridazine dihydrochloride]
6.19 | 6.06 | CCCCc1nnc(OC2CCN(C)CC2)cc1-c1ccc(OC2CCC(F)(F)CC2)cc1 [Example 19, 3-Butyl-4-[4-(4,4-difluoro-cyclohexyloxy)-phenyl]-6-(1-methyl-piperidin-4-yloxy)-pyridazine dihydrochloride]
5.84 | 5.65 | CCCCc1nnc(OC2CCN(CCc3nnc(C)o3)CC2)cc1-c1ccc(OC2CCCCC2)cc1 [Example 20, 3-Butyl-4-(4-cyclohexyloxy-phenyl)-6-{1-[2-(5-methyl-[1,3,4]oxadiazol-2-yl)-ethyl]-piperidin-4-yloxy}-pyridazine dihydrochloride]
5.87 | 5.82 | CCCCc1nnc(OC2CCN(CCc3nnn(C)n3)CC2)cc1-c1ccc(OC2CCCCC2)cc1 [Example 21, 3-Butyl-4-(4-cyclohexyloxy-phenyl)-6-{1-[2-(2-methyl-2H-tetrazol-5-yl)-ethyl]-piperidin-4-yloxy}-pyridazine dihydrochloride]
5.86 | 5.95 | CCCCc1nnc(OC2CCN(CC(C)(C)O)CC2)cc1-c1ccc(OC2CCCCC2)cc1 [Example 22, 1-{4-[6-Butyl-5-(4-cyclohexyloxy-phenyl)-pyridazin-3-yloxy]-piperidin-1-yl}-2-methyl-propan-2-ol dihydrochloride]
6.11 | 5.95 | CCCCc1nnc(OC2CCN(CCOC)CC2)cc1-c1ccc(OC2CCCCC2)cc1 [Example 23, 3-Butyl-4-(4-cyclohexyloxy-phenyl)-6-[1-(2-methoxy-ethyl)-piperidin-4-yloxy]-pyridazine dihydrochloride]
5.57 | 5.60 | CCCCc1nnc(O[C@H]2C[C@H]3CC[C@@H](C2)N3C)cc1-c1ccc(OC2CCCCC2)cc1 [Example 27, endo-3-[6-Butyl-5-(4-cyclohexyloxy-phenyl)-pyridazin-3-yloxy]-8-methyl-8-aza-bicyclo[3.2.1]octane dihydrochloride]
5.76 | 5.78 | CCCCc1nnc(OC[C@@H]2CCCN3CCCC[C@H]23)cc1-c1ccc(OC2CCCCC2)cc1 [Example 28, (1R,9aR)-1-[6-Butyl-5-(4-cyclohexyloxy-phenyl)-pyridazin-3-yloxymethyl]-octahydroquinolizine dihydrochloride]
5.76 | 5.63 | CCCCc1nnc(O[C@@H]2CCN(C)C2)cc1-c1ccc(OC2CCCCC2)cc1 [Example 29, 3-Butyl-4-(4-cyclohexyloxy-phenyl)-6-((R)-1-methyl-pyrrolidin-3-yloxy)-pyridazine dihydrochloride]
5.74 | 5.59 | CCCCc1nnc(O[C@H]2CCN(C)C2)cc1-c1ccc(OC2CCCCC2)cc1 [Example 30, 3-Butyl-4-(4-cyclohexyloxy-phenyl)-6-((S)-1-methyl-pyrrolidin-3-yloxy)-pyridazine dihydrochloride]
6.05 | 5.93 | CCCCc1nnc(O[C@H]2CC3C[C@@H](O)C(C2)N3C)cc1-c1ccc(OC2CCCCC2)cc1 (stereo partly drawn) [Example 31, (3S,6R)-3-[6-Butyl-5-(4-cyclohexyloxy-phenyl)-pyridazin-3-yloxy]-8-methyl-8-aza-bicyclo[3.2.1]octan-6-ol dihydrochloride]
5.56 | 5.75 | CCCCc1nnc(OCC[C@H]2CCCCN2C)cc1-c1ccc(OC2CCCCC2)cc1 [Example 32, 3-Butyl-4-(4-cyclohexyloxy-phenyl)-6-[2-((R)-1-methyl-piperidin-2-yl)-ethoxy]-pyridazine dihydrochloride]
5.58 | 5.83 | CCCCc1nnc(OCC[C@@H]2CCCCN2C)cc1-c1ccc(OC2CCCCC2)cc1 [Example 33, 3-butyl-4-(4-cyclohexyloxy-phenyl)-6-[2-((S)-1-methyl-piperidin-2-yl)-ethoxy]-pyridazine dihydrochloride]
5.53 | 5.59 | CCCCc1nnc(OCC2CN(C)CCO2)cc1-c1ccc(OC2CCCCC2)cc1 (stereo not shown) [Example 34, 2-[6-Butyl-5-(4-cyclohexyloxy-phenyl)-pyridazin-3-yloxymethyl]-4-methyl-morpholine dihydrochloride]
5.73 | 5.78 | CCCCc1nnc(O[C@H]2CC[C@H](NC)CC2)cc1-c1ccc(OC2CCCCC2)cc1 [Example 37, {4-[6-Butyl-5-(4-cyclohexyloxy-phenyl)-pyridazin-3-yloxy]-cyclohexyl}-methyl-amine dihydrochloride]

Compound | pIC50 [1] | pIC50 [2]
CCCCc1nnc(OC2CN3CCC2CC3)cc1-c1ccc(OC2CCCCC2)cc1 (stereo not shown) [Example 26, 3-[6-Butyl-5-(4-cyclohexyloxy-phenyl)-pyridazin-3-yloxy]-1-azabicyclo[2.2.2]octane dihydrochloride] | 5.68 | 5.72
